Data reported in article PMC10177692, “Novel topoisomerase II/EGFR dual inhibitors: design, synthesis and docking studies of naphtho[2′,3′:4,5]thiazolo[3,2-a]pyrimidine hybrids as potential anticancer agents with apoptosis inducing activity” (Journal of Enzyme Inhibition and Medicinal Chemistry, 2023).

Tests used:
MCF-7 cells [1] = assay: In vitro DNA flow cytometry (cell cycle analysis); format: cell-based, human; settings: MCF-7, at IC50, 24 h; for DNA content %Pre-G1: control 1.89; for DNA content %G2/M: control 7.68; for DNA content %S: control 35.09; for DNA content %G0-G1: control 57.23
Procedure: MCF-7 cells were seeded at density of 2 × 10^5 into each well of a 6-well plate. The cells were maintained in Dulbecco’s Modified Eagle’s Medium (DMEM), supplied with 10% foetal bovine serum, and incubated in a humidified atmosphere containing 5% CO2 in air for 24 h at 37 °C. The incubation medium was replaced with a fresh one containing the synthesised hybrids 6a and 6i at their IC50 in DMSO (1% v/v). The cell plates were incubated for 24 h. The cells were washed twice with cold phosphate buffered saline (PBS) then fixed with 70% ice-cold ethanol. Cells washed with PBS at 37 °C for 30 min and recovered by centrifugation at 2000 rpm for 5 min. Cells were stained using DNA fluorochrome propidium iodide (PI). The plates were incubated at room temperature for 20 min in a dark place. Then the cells were investigated with a FACS Calibre flow cytometer (Becton Dickinson, Heidelberg, Germany)[48].

topoisomerase II = target: T1, topoisomerase II (Homo sapiens, UniProt P11388); assay: DNA topo II inhibition assay (kDNA, agarose gel); format: biochemical; settings: 10 µM, with topo II
T1 construct: purchased Topogen, USA
Procedure: Using the procedure outlined in topoisomerase II Drug Screening Kit (Topogen, USA), the effect of 6a, 6c and 6i on topoisomerase II inhibition and the effectiveness of catenated/decatenated kDNA formation were examined. The reaction mixture includes 10 mM MgCl2, 50 mM Tris-HCl, 0.5 mM dithiothreitol, […]/ml bovine serum albumin, 200–300 ng of kDNA and topoisomerase II. […] After the reaction samples were incubated for 30 min at 37 °C, the reaction was stopped by adding […] of a stop buffer containing 10% (w/v) SDS and […] of 0.5 mg/ml proteinase followed by incubating the mixture for 10 min at 37 °C. The reaction mixture was separated by 1% agarose gel and examined after being stained with ethidium bromide.

Bax = Bax level ELISA in MCF-7 cells; format: cell-based, human; settings: for Bax Conc.(pg/ml): MCF-7, at IC50, 24 h, control 83.16 ± 6.2; for Bax FLD: MCF-7, at IC50, fold of control cells
Procedure: (§1) MCF-7 cells were cultured in DMEM supplied with 10% FBS and incubated in 5% CO2 in air at 37 °C. […] Cell lysate was diluted using standard diluent buffer over the range of assay. Bax and Bcl-2 content in the lysate was assessed using human Bax ELISA kit (DRG, USA) and Bcl-2 ELISA Kit (Zymed Laboratories, Invitrogen Immuno-detection, Canada), respectively, according to the manufacturer’s instructions for each kit. The results were expressed as Mean ± SE of three independent experiments.

caspase-7 = assay: Caspase-7 ELISA in MCF-7 cells; format: cell-based, human; settings: for Caspase 7 FLD: MCF-7, at IC50, fold of control; for Caspase 7 Conc.(ng/ml): MCF-7, at IC50, control 0.45 ± 0.03
Procedure: (§2) The effect of 6a, 6c and 6i hybrids on caspase-7 and −9 levels in MCF-7 cell line was measured using Human Caspase-7 ELISA Kit (BioVision Inc., Milpitas, CA 95035 USA) and Human Caspase-9 ELISA Kit (EIA-4860, DRG, USA), respectively, and according to the manufacturer’s instructions. The results were expressed as Mean ± SE of three independent experiments.

EGFR = target: T2, EGFR (Homo sapiens, UniProt P00533); assay: EGFR kinase assay kit; format: biochemical; settings: mean ± SE
T2 construct: purchased BPS Bioscience, San Diego, CA, USA
Procedure: The kinase activity of EGFR was assessed for 6a, 6c and 6i hybrids using EGFR kinase assay kit (BPS Bioscience, San Diego, CA, USA) based on the manufacturer’s instructions. Three independent experiments were performed for each compound and Mean ± SE were calculated.

caspase-9 = assay: Caspase-9 ELISA in MCF-7 cells; format: cell-based, human; settings: for Caspase 9 Conc.(pg/ml): MCF-7, at IC50, control 4.51 ± 0.29
Procedure: as §2

topoisomerase IIα = target: T3, topoisomerase IIα (Homo sapiens, UniProt P11388); assay: Topoisomerase IIα inhibitory activity (ELISA kit); format: cell-based; settings: MCF-7 cell line; for % inhibition of topoisomerase IIα activity: compounds at their IC50, compared to control; for concentration of topoisomerase IIα: compounds at their IC50, control 3.663 ± 0.09 ng/ml
T3 construct: it decreases the concentration of topoisomerase iIα in MCF-7 cell line to 1.043 ± 0.10 ng/ml; endogenous in cells; host or cells: MCF-7
Procedure: Biotin-conjugated antibody was added to each well followed by incubation at 37 °C for 1 h, then the plates were aspirated. Avidin conjugated Horseradish Peroxidase (HRP avidin) solution was added to each well, incubated again at 37 °C for 1 h. TMB substrate was added to the wells and the plate was incubated at 37 °C for 30 min at dark place. The absorbance was read using spectrophotometer at a wavelength of 450 nm.

MCF-7 cells [2] = assay: Annexin V-FITC/PI staining assay; format: cell-based, human; parameters: Apoptosis Total / Apoptosis Early / Apoptosis Late / Necrosis: unit not given here; settings: for increase in cell necrosis compared to control / increase of cell population in early apoptotic stage compared to control / increase of late apoptotic cell population compared to control: MCF-7, at IC50; for Apoptosis Late / Apoptosis Early / Necrosis / Apoptosis Total: MCF-7, at IC50, 24 h; for Apoptosis Late: control 0.15; for Apoptosis Early: control 0.38; for Necrosis: control 1.36; for Apoptosis Total: control 1.89
Procedure: Cells underwent three washing cycles using ice cold PBS, then suspended in PBS. Cell apoptosis was detected by Annexin V-FITC Apoptosis Detection Kit (BioVisionResearch Products, USA). The cells were stained using PI staining solution, Annexin V-FITC and incubated for 15 min at room temperature in a dark place. Cells were investigated by flow cytometry (Ex = 488 nm; Em = 530 nm) using FACS calibre (Becton Dickinson, Heidelberg, Germany)[48].

Bcl-2 = Bcl-2 level ELISA in MCF-7 cells; format: cell-based, human; settings: for Bcl-2 Conc.(ng/ml): MCF-7, at IC50, 24 h, control 6.56 ± 0.22; for Bcl-2 FLD: MCF-7, at IC50, fold of control cells
Procedure: as §1

p53 = p53 level ELISA in MCF-7 cells; format: cell-based, human; settings: for p53 FLD: MCF-7, at IC50, fold of control cells; for p53 Conc.(pg/ml): control 257 ± 19.1
Procedure: p53 level was determined in MCF-7 cell line using Human p53 ELISA Kit (Sigma Aldrich, St. Louis, MO, USA). The cells were lysed using cell extraction buffer. Cell lysate was diluted with standard diluent buffer, then added to p53 monoclonal antibody pre-coated 96-wells plate. The plate incubated for 2 h at room temperature. Anti-p53 detection antibody was added to the plate and re-incubated at room temperature for 1 h. The plate washed four times using wash buffer followed by addition of anti-rabbit IgG-Horseradish Peroxidase (HRP) working solution. The plate incubated at room temperature for 30 min. Chromogen TMB (tetramethylbenzidine) was added to induce colour reaction. The absorbance of the plate was read at 450 nm using microplate reader (Bio-Rad Laboratories, Hercules, CA, USA). Three independent experiments were performed for each compound and Mean ± SE were calculated.

T3 sequence (P11388 whole entry): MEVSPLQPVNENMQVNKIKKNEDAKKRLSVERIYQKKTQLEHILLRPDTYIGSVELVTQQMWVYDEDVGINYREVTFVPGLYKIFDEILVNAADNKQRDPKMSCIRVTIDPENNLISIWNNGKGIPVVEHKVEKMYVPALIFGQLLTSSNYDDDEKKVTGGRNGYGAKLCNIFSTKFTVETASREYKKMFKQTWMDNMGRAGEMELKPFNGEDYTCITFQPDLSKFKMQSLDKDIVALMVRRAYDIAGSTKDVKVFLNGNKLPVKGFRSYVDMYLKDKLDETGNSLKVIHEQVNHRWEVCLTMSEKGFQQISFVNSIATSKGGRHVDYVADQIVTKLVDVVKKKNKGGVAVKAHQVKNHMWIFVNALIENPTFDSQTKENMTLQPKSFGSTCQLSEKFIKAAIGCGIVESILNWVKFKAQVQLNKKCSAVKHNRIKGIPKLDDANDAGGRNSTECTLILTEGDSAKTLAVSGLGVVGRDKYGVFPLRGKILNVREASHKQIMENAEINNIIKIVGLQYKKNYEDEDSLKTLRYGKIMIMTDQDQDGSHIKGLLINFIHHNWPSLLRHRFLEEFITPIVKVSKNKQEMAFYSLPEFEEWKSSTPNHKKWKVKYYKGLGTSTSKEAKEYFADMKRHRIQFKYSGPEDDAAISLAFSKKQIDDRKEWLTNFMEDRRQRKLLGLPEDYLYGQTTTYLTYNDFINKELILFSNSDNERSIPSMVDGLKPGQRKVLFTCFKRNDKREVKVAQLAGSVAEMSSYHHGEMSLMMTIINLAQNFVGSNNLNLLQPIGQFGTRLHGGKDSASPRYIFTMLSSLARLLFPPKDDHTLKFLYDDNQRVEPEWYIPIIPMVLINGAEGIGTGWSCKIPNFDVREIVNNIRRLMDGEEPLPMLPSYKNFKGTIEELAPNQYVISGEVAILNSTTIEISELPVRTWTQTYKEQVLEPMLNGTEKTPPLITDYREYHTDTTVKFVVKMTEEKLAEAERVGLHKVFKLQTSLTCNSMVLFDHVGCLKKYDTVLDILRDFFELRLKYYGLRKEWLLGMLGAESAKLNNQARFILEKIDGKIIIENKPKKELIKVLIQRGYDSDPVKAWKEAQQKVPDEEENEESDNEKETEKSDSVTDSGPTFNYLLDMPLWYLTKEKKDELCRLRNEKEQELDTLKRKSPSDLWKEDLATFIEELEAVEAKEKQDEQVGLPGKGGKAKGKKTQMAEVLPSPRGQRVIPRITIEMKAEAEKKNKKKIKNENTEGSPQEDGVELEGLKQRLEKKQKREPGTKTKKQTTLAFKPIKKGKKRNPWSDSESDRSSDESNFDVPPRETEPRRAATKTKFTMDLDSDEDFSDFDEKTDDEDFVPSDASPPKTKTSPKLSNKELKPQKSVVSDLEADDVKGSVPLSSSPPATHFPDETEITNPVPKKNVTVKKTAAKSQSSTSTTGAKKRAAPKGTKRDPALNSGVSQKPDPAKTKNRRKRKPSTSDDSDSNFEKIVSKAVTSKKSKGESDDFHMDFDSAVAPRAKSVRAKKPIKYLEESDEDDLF
T2 sequence (P00533 25-1210): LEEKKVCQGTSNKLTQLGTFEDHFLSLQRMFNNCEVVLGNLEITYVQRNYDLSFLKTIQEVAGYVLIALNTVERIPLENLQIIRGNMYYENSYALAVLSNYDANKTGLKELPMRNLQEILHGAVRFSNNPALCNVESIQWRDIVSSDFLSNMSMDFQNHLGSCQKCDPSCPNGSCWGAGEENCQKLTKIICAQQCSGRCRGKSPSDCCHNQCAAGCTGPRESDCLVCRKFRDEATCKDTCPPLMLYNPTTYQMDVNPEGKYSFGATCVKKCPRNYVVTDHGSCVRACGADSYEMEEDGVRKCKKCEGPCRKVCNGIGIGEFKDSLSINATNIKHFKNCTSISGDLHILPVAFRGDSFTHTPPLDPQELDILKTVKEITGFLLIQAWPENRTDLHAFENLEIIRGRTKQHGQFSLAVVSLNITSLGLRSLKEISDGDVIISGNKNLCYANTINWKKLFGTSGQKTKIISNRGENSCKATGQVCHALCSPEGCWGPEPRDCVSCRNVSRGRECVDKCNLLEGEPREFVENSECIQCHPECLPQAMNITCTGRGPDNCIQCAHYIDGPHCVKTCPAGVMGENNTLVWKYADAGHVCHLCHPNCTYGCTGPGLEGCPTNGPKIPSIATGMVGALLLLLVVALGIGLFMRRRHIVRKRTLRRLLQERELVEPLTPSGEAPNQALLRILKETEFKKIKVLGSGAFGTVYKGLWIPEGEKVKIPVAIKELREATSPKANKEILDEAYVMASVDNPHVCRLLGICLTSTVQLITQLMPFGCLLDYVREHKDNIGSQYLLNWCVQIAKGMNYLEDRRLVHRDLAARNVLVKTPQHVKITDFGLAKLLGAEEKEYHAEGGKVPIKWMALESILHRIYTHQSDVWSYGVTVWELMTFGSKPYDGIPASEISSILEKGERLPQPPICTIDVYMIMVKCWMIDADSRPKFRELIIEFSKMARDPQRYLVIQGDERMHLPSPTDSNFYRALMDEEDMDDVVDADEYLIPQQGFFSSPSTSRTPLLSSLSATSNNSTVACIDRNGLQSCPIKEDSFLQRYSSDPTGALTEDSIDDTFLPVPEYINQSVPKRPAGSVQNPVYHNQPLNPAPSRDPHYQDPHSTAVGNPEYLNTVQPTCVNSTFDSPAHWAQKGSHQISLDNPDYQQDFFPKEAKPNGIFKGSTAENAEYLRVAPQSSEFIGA
T1 sequence (P11388 whole entry): as the sequence (P11388 whole entry) above

Compound	DNA content %Pre-G1 (MCF-7 cells [1]) [%]	DNA content %G2/M (MCF-7 cells [1]) [%]	DNA content %S (MCF-7 cells [1]) [%]	DNA content %G0-G1 (MCF-7 cells [1]) [%]	linear DNA formation from catenated kDNA (topoisomerase II)	Bax Conc.(pg/ml) (Bax) [pg/mL]	Bax FLD (Bax) [fold]	Caspase 7 FLD (caspase-7) [fold]	Caspase 7 Conc.(ng/ml) (caspase-7) [ng/mL]	Caspase 9 Conc.(pg/ml) (caspase-9) [pg/mL]	% inhibition of topoisomerase IIα activity (topoisomerase IIα) [%]	concentration of topoisomerase IIα (topoisomerase IIα) [ng/mL]	increase in cell necrosis compared to control (MCF-7 cells [2]) [folds]	increase of cell population in early apoptotic stage compared to control (MCF-7 cells [2]) [folds]	increase of late apoptotic cell population compared to control (MCF-7 cells [2]) [folds]	Apoptosis Late (MCF-7 cells [2])	Apoptosis Early (MCF-7 cells [2])	Necrosis (MCF-7 cells [2])	Apoptosis Total (MCF-7 cells [2])	Bcl-2 Conc.(ng/ml) (Bcl-2) [ng/mL]	also measured
COc1ccc(-c2nc3sc4c(n3c(=O)c2C#N)C(=O)c2ccccc2C4=O)cc1 [Compound 6a, 2–(4-Methoxyphenyl)-4,6,11-trioxo-6,11-dihydro-4H-naphtho[2′,3′:4,5]-thiazolo[3,2-a]pyrimidine-3-carbonitrile]	33.41	34.78	28.94	36.28	the production of linear DNA was not noticed	436.1 ± 5.1	5.24	14.93	6.72 ± 0.23	21.17 ± 0.38	35.81	2.351 ± 0.21	6.78	13.84	126.13	18.92	5.26	9.23	33.41	3.99 ± 0.24	IC50 (EGFR; read-out: EGFR inhibitory activity IC50): 16 ± 0.47 nM; Caspase 9 FLD (caspase-9; MCF-7, at IC50, fold of control): 4.69 fold; Bcl-2 FLD (Bcl-2): 0.61 fold; p53 FLD (p53): 3.6 fold; p53 Conc.(pg/ml) (p53; MCF-7, at IC50): 922 ± 37.5 pg/mL
N#Cc1c(-c2ccc([N+](=O)[O-])cc2)nc2sc3c(n2c1=O)C(=O)c1ccccc1C3=O [Compound 6i, 2–(4-Nitrophenyl)-4,6,11-trioxo-6,11-dihydro-4H-naphtho[’',’':4,5]thiazolo-[3,2-a]pyrimidine-3-carbonitrile]	45.26	2.89	51.17	45.94	the production of linear DNA was not noticed	581.5 ± 8.7	6.99	20.41	9.20 ± 0.87	32.29 ± 0.33	71.50	1.043 ± 0.10	10.52	9.57	182.06	27.31	3.64	14.31	45.26	3.64 ± 0.08	EGFR inhibitory activity IC50 (EGFR): nearly equipotent to that of erlotinib; Bcl-2 FLD (Bcl-2): 0.55 fold; increase in p53 level compared to Dox treated cells (p53; MCF-7, at IC50): 1.2 fold; p53 FLD (p53): 5 fold; p53 Conc.(pg/ml) (p53; MCF-7, at IC50): 1285 ± 29.9 pg/mL
